Our source for the IC50 values is US20240002368A1 (QILU REGOR THERAPEUTICS INC., priority 2020, published 2024).

SMILES strings stand for the structures. A value given as a limit tells only on which side of the number the result lay.

For the first experiment, the system named is STING pathway. The experiment in a line: IFN β reporter assay (HTRF, 2′3′-cGAMP-stimulated THP1 cells). Particulars: Homo sapiens, THP-1, THP1 cells, 5 μM 2′3′-cGAMP, IFN β secretion inhibition; class symbols; read-out: IFN β reporter activity IC50. Format: cell-based, human. The procedure: STING pathway deactivation by the compounds described herein was measured using THP1 cells. The THP1 Cells (obtained from ATCC, Cat #TIB-202) were maintained in RPMI-1640 (Gibco, Cat #22400105), 10% FBS, 1% Pen-Strep, 0.05 mM 2-mercaptoethanol. For STING activation, 2′3′-cGAMP (MW 718.38, obtained from Invivogen) was used and prepared in serum-free RPMI-1640 media. Growth media: RPMI-1640 (HEPES, glutamine), 10% FBS, 1% Pen-Strep, 0.05 mM 2-mercaptoethanol. Assay media: RPMI-1640 (HEPES, glutamine), 0.5% FBS. 2′3′-cGAMP: Dissolve 2′3′-cGAMP to 10 mM stock in H2O.
The cells were prepared and seeded at 100K, 90 μL/well with assay media in cell culture plate (Greiner 655180). The compounds were added in 96-well tissue culture plates by Tecan D300e for a final concentration of 0.00137-3 μM.
Lipo2000/3000 and 2′3′-cGAMP stock solutions were diluted respectively in serum-free RPMI-1640 media. The diluted 2′3′-cGAMP and Lipo (V/V=1:1) were mixed and stood for 15 min at room temperature. 10 μL 2,3-cGAMP/Lipofectamine (10×) was transferred to the 96-well assay plate with a final 2′3′-cGAMP concentration of 5 μM. The cell plates were centrifuged at 1000 rpm for 5 min after incubating at 37° C., 5% CO2 overnight.
All reagents (human IFN beta kit, Cisbio 62HIFNBPEG) were warmed to room temperature for at least 30 min before the assay. The instructions of the kit were followed to prepare the detection media. 14 μL of cell supernatants was transferred into their dedicated wells in 384-well plate. Then 2 μL of the activation reagent solution and 4 μL of the mixed antibody solution were added to all wells. The plate was sealed and incubated for 3 h at room temperature.
The HTRF signal was read in Envision (PerkinElmer). IFN β reporter activity was then measured. The calculated ratio is the signal at 665 nm/signal at 615 nm. IC50 values are calculated by using standard methods known in the art.
For `O=C(Nc1c[nH]c2ccccc12)c1cc2ccc(C(F)(F)F)cc2[nH]1` [Example 56], the half-inhibitory concentration (IC50) was 50 to 200 nM.

With `Cn1cc(C(=O)Nc2c[nH]c3ccc(F)cc23)c2cc(F)c(CN3CCC(F)CC3)cc21` [Example 102], the IC50 lay in the range of 200 to 1000 nM.

On to `CC(NCC(F)(F)F)c1cc2c(cc1F)c(C(=O)Nc1c[nH]c3ccc(F)cc13)cn2C` (racemic) [Example 107, rac-5-fluoro-N-(5-fluoro-1H-indol-3-yl)-1-methyl-6-[1-(2,2,2-trifluoroethylamino)ethyl]indole-3-carboxamide], for which the IC50 was in the range of 50 to 200 nM.

`O=C(Nc1c[nH]c2ccc(F)cc12)c1n[nH]c2cc(CNCC(F)(F)F)ccc12` [Example 93]: the IC50 was in the range of 50 to 200 nM.

For `O=C(Nc1c[nH]c2cc(F)c(F)cc12)c1cc2ccc(C(F)(F)F)cc2[nH]1` [Example 79], the IC50 fell in the range of 50 to 200 nM.

Regarding `O=C(Nc1c[nH]c2cc(F)c(F)cc12)c1n[nH]c2nc(OCC(F)(F)F)ccc12` [Example 70], the IC50 fell in the range of 50 to 200 nM.

As to `CN(C)Cc1cc2c(cc1F)c(C(=O)Nc1c[nH]c3ccc(F)cc13)cn2C` [Example 94], the IC50 was more than 1000 nM.

Consider `Cn1nc(C(=O)Nc2c[nH]c3ccccc23)c2ccc(C#N)cc21` [Example 86, 6-cyano-N-(1H-indol-3-yl)-1-methyl-indazole-3-carboxamide], for which the IC50 was more than 1000 nM.

For the compound `O=C(Nc1c[nH]c2ccc(F)cc12)c1c[nH]c2cc(C(F)(F)F)ccc12` [Example 53], the half-inhibitory concentration (IC50) was less than 50 nM.

On to `CN(C)Cc1ccc2[nH]cc(NC(=O)c3cn(C)c4cc(C(F)(F)F)ccc34)c2c1` [Example 111, N-(5-((dimethylamino)methyl)-1H-indol-3-yl)-1-methyl-6-(trifluoromethyl)-1H-indole-3-carboxamide], for which the IC50 is more than 1000 nM.

For `O=C(Nc1c[nH]c2ccc(F)cc12)c1n[nH]c2cc(N3CCOCC3)ccc12` [Example 60, N-(5-fluoro-1H-indol-3-yl)-6-morpholino-1H-indazole-3-carboxamide], the IC50 fell in the range of 200 to 1000 nM.

As for `O=C(Nc1c[nH]c2c(F)cccc12)c1n[nH]c2cc(C(F)(F)F)ccc12` [Example 6], the 50% inhibitory concentration (IC50) is 200 to 1000 nM.

Consider `O=C(Nc1c[nH]c2ccc(F)cc12)c1n[nH]c2cc(C3CCOCC3)ccc12` [Example 28], for which the IC50 fell in the range of 50 to 200 nM.

`O=C(Nc1c[nH]c2ccccc12)c1n[nH]c2cc(C(F)(F)F)ccc12` [Example 31]: the IC50 is less than 50 nM.

For `Cn1cc(C(=O)Nc2c[nH]c3ccc(N4CCN(C(=O)OC(C)(C)C)CC4=O)cc23)c2ccc(C(F)(F)F)cc21` [Example 38], the IC50 was 50 to 200 nM.

For the compound `CN1CCC(c2ccc3c(C(=O)Nc4c[nH]c5ccc(F)cc45)cn(C)c3c2)CC1` [Example 118], the IC50 is more than 1000 nM.

Take `O=C(Nc1c[nH]c2ccc(F)cc12)c1n[nH]c2nc(OCC(F)(F)F)ccc12` [Example 69]: the IC50 was 50 to 200 nM.

As for `Cn1cc(C(=O)Nc2c[nH]c3ccc(F)cc23)c2ccc(C3CCOCC3)cc21` [Example 73], the IC50 was 50 to 200 nM.

For the compound `Cn1cc(C(=O)Nc2c[nH]c3ccc(N4CCNCC4=O)cc23)c2ccc(C(F)(F)F)cc21` [Example 108, 1-methyl-N-[5-(2-oxopiperazin-1-yl)-1H-indol-3-yl]-6-(trifluoromethyl)indole-3-carboxamide], the concentration for half-maximal inhibition (IC50) is more than 1000 nM.

For the compound `NC(=O)c1ccc2c(C(=O)N(CC(F)(F)F)c3c[nH]c4cc(F)ccc34)n[nH]c2c1` [Example 89, N-(6-fluoro-1H-indol-3-yl)-N-(2,2,2-trifluoroethyl)-1H-indazole-3,6-dicarboxamide], the IC50 lay in the range of 200 to 1000 nM.

Consider `O=C(Nc1c[nH]c2ccc(F)cc12)c1cnn2cc(C(F)(F)F)ccc12` [Example 66], for which the IC50 is 200 to 1000 nM.

On to `Cn1cc(C(=O)Nc2c[nH]c3ccc(F)cc23)c2cc(F)c(CN3CCOCC3)cc21` [Example 95], for which the IC50 was 200 to 1000 nM.

Consider `O=C(Nc1c[nH]c2ccc(F)cc12)c1cc2ccc(C(F)(F)F)cc2[nH]1` [Example 78], for which the IC50 fell in the range of 50 to 200 nM.

For `Cn1cc(C(=O)Nc2c[nH]c3ccc(F)cc23)c2ccc(C3=CCOCC3)cc21` [Example 72], the 50% inhibitory concentration (IC50) lay in the range of 50 to 200 nM.

As for `CNCc1ccc2[nH]cc(NC(=O)c3cn(C)c4cc(C(F)(F)F)ccc34)c2c1` [Example 110, 1-methyl-N-(5-((methylamino)methyl)-1H-indol-3-yl)-6-(trifluoromethyl)-1H-indole-3-carboxamide], the 50% inhibitory concentration (IC50) is more than 1000 nM.

Consider `COC(=O)c1ccc2c(C(=O)Nc3c[nH]c4ccc(F)cc34)n[nH]c2c1` [Example 27], for which the IC50 was more than 1000 nM.

For `O=C(Nc1c[nH]c2cc(F)c(F)cc12)c1cc2ccc(Br)cn2n1` [Example 58], the half-maximal inhibitory concentration (IC50) is 200 to 1000 nM.

With `O=C(Nc1c[nH]c2ccccc12)c1n[nH]c2cc(Br)ccc12` [Example 9], the IC50 was less than 50 nM.

Consider `O=C(Nc1c[nH]c2ccc(F)cc12)c1n[nH]c2cc(C(F)(F)F)ccc12` [Example 8], for which the IC50 was less than 50 nM.

Consider `O=C(Nc1c[nH]c2ccc(F)cc12)c1cnn2cc(Cl)ccc12` [Example 23], for which the IC50 is 200 to 1000 nM.

`C[C@@H]1COCCN1c1cc2c(cc1F)c(C(=O)Nc1c[nH]c3ccc(F)cc13)cn2C` [Example 50]: the IC50 was in the range of 200 to 1000 nM.

Consider `O=C(Nc1c[nH]c2cc(F)c(F)cc12)c1n[nH]c2ccccc12` [Example 63], for which the IC50 lay in the range of 50 to 200 nM.

In the case of `Cn1cc(C(=O)Nc2c[nH]c3ccc(P(C)(C)=O)cc23)c2ccc(C(F)(F)F)cc21` [Example 21], the IC50 was more than 1000 nM.

Still in this experiment, the particulars now being: Homo sapiens, THP-1, THP1 cells, 5 μM 2′3′-cGAMP, IFN β secretion inhibition; numeric values (comparators); read-out: IFN β reporter activity IC50.
On to `Cn1cc(NC(=O)c2cn(C)c3cc(C(F)(F)F)ccc23)c2cc(C#N)ccc21` [Comparator D, reference compound], for which the IC50 was 10000 nM.

For `CN(C(=O)c1n[nH]c2cc(C(F)(F)F)ccc12)c1c[nH]c2ccc(F)cc12` [Comparator E, reference compound], the IC50 stood at 12000 nM.

The experiment is the same for the next values; noted with them: Homo sapiens, THP-1, read-out: IFN β reporter activity IC50.
Take `Cn1nc(C(=O)Nc2c[nH]c3ccccc23)c2ccc(Br)cc21` [Example 4]: the IC50 lay in the range of 50 to 200 nM.

As to `CC(C)n1nc(C(=O)Nc2c[nH]c3ccccc23)c2ccc(C(F)(F)F)cc21` [Example 5], the half-inhibitory concentration (IC50) was 200 to 1000 nM.

On to `O=C(Nc1c[nH]c2ccc(F)cc12)c1cn([C@H]2CCOC2)c2cc(C(F)(F)F)ccc12` [Example 77], for which the IC50 was 50 to 200 nM.

With `CN1CC=C(c2ccc3c(C(=O)Nc4c[nH]c5ccc(F)cc45)cn(C)c3c2)CC1` [Example 117], the IC50 was more than 1000 nM.

Take `Cn1nc(C(=O)Nc2c[nH]c3ccccc23)c2ccc(C(F)(F)F)cc21` [Example 1, N-(1H-indol-3-yl)-1-methyl-6-(trifluoromethyl)indazole-3-carboxamide]: the IC50 lay within 50 to 200 nM.

In the case of `CN1CC=C(c2cc3c(cc2Cl)c(C(=O)Nc2c[nH]c4ccc(C#N)cc24)cn3C)CC1` [Example 119, 5-chloro-N-(5-cyano-1H-indol-3-yl)-1-methyl-6-(1-methyl-3,6-dihydro-2H-pyridin-4-yl)indole-3-carboxamide], the IC50 was more than 1000 nM.

Take `Cn1cc(C(=O)Nc2c[nH]c3ccc(F)cc23)c2cc(C(F)(F)F)cnc21` [Example 22]: the IC50 was 200 to 1000 nM.

Regarding `COCCOc1ccc2c(C(=O)Nc3c[nH]c4ccc(C#N)cc34)cn(C3CC3)c2n1` [Example 47], the half-maximal inhibitory concentration (IC50) is 200 to 1000 nM.

For the compound `Cn1cc(C(=O)Nc2c[nH]c3ccc(C#N)cc23)c2ccc(C(F)(F)F)cc21` [Example 36], the half-inhibitory concentration (IC50) was less than 50 nM.

With `COCCOc1ccc2c(C(=O)Nc3c[nH]c4ccc(F)cc34)cn(C3CC3)c2n1` [Example 46], the IC50 lay in the range of 50 to 200 nM.

For the compound `CN1CC(n2cc(C(=O)Nc3c[nH]c4ccc(F)cc34)c3ccc(C(F)(F)F)cc32)C1` [Example 114, N-(5-fluoro-1H-indol-3-yl)-1-(1-methylazetidin-3-yl)-6-(trifluoromethyl)indole-3-carboxamide], the IC50 was more than 1000 nM.

Consider `Cn1cc(C(=O)Nc2c[nH]c3ccc(F)cc23)c2ccc(Cl)nc21` [Example 71], for which the IC50 lay in the range of 50 to 200 nM.

For `Cn1cc(C(=O)Nc2c[nH]c3ccccc23)c2ccc(C(F)(F)F)cc21` [Example 18], the IC50 was 50 to 200 nM.

Regarding `O=C(Nc1c[nH]c2ccc(F)cc12)c1cn([C@@H]2CCOC2)c2cc(C(F)(F)F)ccc12` [Example 76], the half-inhibitory concentration (IC50) is 200 to 1000 nM.

For the compound `Cn1cc(C(=O)Nc2c[nH]c3ccc(F)cc23)c2ccccc21` [Example 35], the IC50 was in the range of 200 to 1000 nM.

With `Cn1cc(C(=O)Nc2c[nH]c3ccc(F)cc23)c2ccc(C(F)(F)F)cc21` [Example 20], the concentration for half-maximal inhibition (IC50) was less than 50 nM.

Still in this experiment, the particulars now being: THP1 cells, 5 μM 2′3′-cGAMP, IFN β secretion inhibition; class symbols; read-out: IFN β reporter activity IC50.
Take `O=C(Nc1c[nH]c2ccccc12)c1n[nH]c2cc(C(F)(F)F)ccc12` [Example 2]: the IC50 lay within 50 to 200 nM.
